Activity calls are given as the source filed them. The rule behind the calls is not given here.
How the values were obtained:
[1] = target: Muscarinic acetylcholine receptor M2 (Homo sapiens) (UniProt P08172); assay: PubChem AID 1788; conditions: MDS Pharma lead profiling panel, radioligand binding, at 10 µM, stronger effect = higher value
[2] = tested on: Transporter, Norepinephrine (NET) (human); assay: PubChem AID 1788; conditions: MDS Pharma lead profiling panel, radioligand binding, at 10 µM, stronger effect = higher value
[3] = tested on: Imidazoline I2 central (rat); assay: PubChem AID 1788; conditions: MDS Pharma lead profiling panel, radioligand binding, at 10 µM, stronger effect = higher value
[4] = target: Beta-2 adrenergic receptor (Homo sapiens) (UniProt P07550); assay: PubChem AID 1788; conditions: MDS Pharma lead profiling panel, radioligand binding; Adrenergic b2 (human); at 10 µM; stronger effect = higher value
Beta-2 adrenergic receptor (Homo sapiens), sequence (P07550 whole entry, looked up): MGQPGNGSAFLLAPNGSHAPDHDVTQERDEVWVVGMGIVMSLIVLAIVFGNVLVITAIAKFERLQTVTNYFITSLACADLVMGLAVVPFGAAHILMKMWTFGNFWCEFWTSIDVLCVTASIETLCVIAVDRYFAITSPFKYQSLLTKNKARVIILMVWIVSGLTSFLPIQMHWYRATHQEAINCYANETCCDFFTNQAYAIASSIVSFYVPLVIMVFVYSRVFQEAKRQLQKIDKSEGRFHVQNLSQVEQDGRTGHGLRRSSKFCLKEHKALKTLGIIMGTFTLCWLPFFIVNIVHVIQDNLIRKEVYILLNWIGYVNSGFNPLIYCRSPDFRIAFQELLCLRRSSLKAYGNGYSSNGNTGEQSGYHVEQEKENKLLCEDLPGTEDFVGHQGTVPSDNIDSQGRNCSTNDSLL

Thyroid Hormone (rat) = assay: PubChem AID 1788; conditions: MDS Pharma lead profiling panel, radioligand binding, at 10 µM, stronger effect = higher value
[5] = target: 5-hydroxytryptamine receptor 1A (Homo sapiens) (UniProt P08908); assay: PubChem AID 1788; conditions: MDS Pharma lead profiling panel, radioligand binding; Serotonin (5-Hydroxytryptamine) 5-HT1A (human); at 10 µM; stronger effect = higher value
5-hydroxytryptamine receptor 1A (Homo sapiens), sequence (P08908 whole entry, looked up): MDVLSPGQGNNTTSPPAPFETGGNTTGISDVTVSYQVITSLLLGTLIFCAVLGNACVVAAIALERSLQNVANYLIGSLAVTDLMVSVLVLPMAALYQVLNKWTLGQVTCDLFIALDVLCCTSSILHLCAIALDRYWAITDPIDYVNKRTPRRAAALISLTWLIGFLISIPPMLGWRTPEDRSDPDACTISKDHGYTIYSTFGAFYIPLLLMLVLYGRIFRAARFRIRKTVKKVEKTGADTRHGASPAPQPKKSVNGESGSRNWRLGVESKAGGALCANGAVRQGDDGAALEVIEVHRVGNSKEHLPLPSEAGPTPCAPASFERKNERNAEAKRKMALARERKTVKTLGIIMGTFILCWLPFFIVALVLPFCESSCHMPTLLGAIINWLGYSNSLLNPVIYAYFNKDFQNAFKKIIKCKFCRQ

[6] = target: Alpha-2A adrenergic receptor (Homo sapiens) (UniProt P08913); assay: PubChem AID 1788; conditions: MDS Pharma lead profiling panel, radioligand binding; Adrenergic a2A (human); at 10 µM; stronger effect = higher value
Alpha-2A adrenergic receptor (Homo sapiens), sequence (P08913 whole entry, looked up): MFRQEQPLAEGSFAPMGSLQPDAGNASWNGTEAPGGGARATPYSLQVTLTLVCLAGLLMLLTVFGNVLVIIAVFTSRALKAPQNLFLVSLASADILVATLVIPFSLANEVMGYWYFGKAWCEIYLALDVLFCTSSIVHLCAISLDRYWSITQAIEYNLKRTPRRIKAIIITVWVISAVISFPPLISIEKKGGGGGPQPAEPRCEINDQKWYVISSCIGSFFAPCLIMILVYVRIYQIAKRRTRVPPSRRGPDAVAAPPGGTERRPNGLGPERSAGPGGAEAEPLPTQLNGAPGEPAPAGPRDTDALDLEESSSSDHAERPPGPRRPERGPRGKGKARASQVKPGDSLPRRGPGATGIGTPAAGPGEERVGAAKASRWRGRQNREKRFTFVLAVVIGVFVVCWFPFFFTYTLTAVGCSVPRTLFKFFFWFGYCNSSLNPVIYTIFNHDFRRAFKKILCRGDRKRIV

[7] = target: Voltage-gated inwardly rectifying potassium channel KCNH2 (Homo sapiens) (UniProt Q12809); assay: PubChem AID 1788; conditions: MDS Pharma lead profiling panel, radioligand binding; Potassium Channel hERG (human); at 10 µM; stronger effect = higher value
Voltage-gated inwardly rectifying potassium channel KCNH2 (Homo sapiens), sequence (Q12809 whole entry, looked up): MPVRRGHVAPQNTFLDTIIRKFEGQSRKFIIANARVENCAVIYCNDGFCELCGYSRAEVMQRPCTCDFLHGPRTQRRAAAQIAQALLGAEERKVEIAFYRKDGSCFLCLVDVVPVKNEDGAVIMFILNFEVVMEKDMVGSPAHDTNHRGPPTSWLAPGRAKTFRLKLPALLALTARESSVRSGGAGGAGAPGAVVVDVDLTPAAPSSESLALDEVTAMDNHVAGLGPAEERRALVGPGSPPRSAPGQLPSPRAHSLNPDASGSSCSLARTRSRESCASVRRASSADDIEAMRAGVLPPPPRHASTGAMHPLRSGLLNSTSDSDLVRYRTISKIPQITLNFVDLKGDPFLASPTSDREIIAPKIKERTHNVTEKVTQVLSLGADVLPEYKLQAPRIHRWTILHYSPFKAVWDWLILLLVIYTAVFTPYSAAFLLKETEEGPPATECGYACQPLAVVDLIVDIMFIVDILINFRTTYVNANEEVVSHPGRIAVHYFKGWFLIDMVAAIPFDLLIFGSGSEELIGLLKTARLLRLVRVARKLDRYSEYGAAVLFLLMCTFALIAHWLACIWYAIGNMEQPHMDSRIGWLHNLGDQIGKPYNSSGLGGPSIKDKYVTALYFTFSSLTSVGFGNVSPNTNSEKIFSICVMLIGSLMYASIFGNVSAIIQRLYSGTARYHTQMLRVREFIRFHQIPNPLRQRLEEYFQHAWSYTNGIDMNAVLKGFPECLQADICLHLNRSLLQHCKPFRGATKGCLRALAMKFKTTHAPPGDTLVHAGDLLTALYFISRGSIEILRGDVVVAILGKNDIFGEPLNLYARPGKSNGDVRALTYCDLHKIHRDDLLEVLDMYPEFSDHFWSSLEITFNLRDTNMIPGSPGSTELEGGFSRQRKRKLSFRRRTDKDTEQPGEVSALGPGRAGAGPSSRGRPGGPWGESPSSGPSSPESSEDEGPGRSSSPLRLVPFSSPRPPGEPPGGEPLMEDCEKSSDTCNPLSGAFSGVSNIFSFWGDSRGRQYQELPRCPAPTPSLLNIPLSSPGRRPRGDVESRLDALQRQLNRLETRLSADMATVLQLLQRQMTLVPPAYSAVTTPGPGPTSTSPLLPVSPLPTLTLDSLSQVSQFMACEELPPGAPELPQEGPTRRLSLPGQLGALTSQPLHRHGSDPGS

Tachykinin NK1 (human) = assay: PubChem AID 1788; conditions: MDS Pharma lead profiling panel, radioligand binding, at 10 µM, stronger effect = higher value
[8] = tested on: Leukotriene Cysteinyl CysLT1 (human); assay: PubChem AID 1788; conditions: MDS Pharma lead profiling panel, radioligand binding, at 10 µM, stronger effect = higher value
Sigma s2 (rat) = assay: PubChem AID 1788; conditions: MDS Pharma lead profiling panel, radioligand binding, at 10 µM, stronger effect = higher value
Endothelin ETB (human) = assay: PubChem AID 1788; conditions: MDS Pharma lead profiling panel, radioligand binding, at 10 µM, stronger effect = higher value
Interleukin IL-1 (mouse) = assay: PubChem AID 1788; conditions: MDS Pharma lead profiling panel, radioligand binding, at 10 µM, stronger effect = higher value
[9] = target: D(2) dopamine receptor (Homo sapiens) (UniProt P14416); assay: PubChem AID 1788; conditions: MDS Pharma lead profiling panel, radioligand binding; Dopamine D2S (human); at 10 µM; stronger effect = higher value
D(2) dopamine receptor (Homo sapiens), sequence (P14416 whole entry, looked up): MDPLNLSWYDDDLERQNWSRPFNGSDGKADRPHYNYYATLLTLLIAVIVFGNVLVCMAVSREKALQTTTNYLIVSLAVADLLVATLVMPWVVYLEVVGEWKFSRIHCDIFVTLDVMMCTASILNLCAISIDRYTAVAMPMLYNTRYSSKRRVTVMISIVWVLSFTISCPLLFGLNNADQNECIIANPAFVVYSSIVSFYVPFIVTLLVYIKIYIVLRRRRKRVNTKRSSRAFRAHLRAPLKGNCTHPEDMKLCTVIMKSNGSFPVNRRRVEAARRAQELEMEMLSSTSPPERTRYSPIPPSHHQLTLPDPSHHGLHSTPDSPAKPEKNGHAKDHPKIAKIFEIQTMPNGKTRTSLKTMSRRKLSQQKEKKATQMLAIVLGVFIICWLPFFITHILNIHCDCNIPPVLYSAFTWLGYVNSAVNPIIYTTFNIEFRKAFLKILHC

[10] = tested on: Sodium Channel, Site 2 (rat); assay: PubChem AID 1788; conditions: MDS Pharma lead profiling panel, radioligand binding, at 10 µM, stronger effect = higher value
[11] = target: Kappa-type opioid receptor (Homo sapiens) (UniProt P41145); assay: PubChem AID 1788; conditions: MDS Pharma lead profiling panel, radioligand binding; Opiate k (OP2, KOP) (human); at 10 µM; stronger effect = higher value
Kappa-type opioid receptor (Homo sapiens), sequence (P41145 whole entry, looked up): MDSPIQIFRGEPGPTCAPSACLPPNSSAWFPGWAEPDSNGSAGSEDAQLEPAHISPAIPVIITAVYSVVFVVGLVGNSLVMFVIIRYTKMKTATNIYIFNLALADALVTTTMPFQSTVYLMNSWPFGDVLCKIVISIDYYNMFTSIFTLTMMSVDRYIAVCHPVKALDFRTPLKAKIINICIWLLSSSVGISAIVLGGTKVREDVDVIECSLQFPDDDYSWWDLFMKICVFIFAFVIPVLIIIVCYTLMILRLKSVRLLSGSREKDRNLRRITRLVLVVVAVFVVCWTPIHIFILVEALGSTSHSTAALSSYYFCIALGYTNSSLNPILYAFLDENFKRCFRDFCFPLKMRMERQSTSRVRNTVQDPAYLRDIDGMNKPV

Bradykinin B1 (human) = assay: PubChem AID 1788; conditions: MDS Pharma lead profiling panel, radioligand binding, at 10 µM, stronger effect = higher value
Glutamate NMDA (rat) = assay: PubChem AID 1788; conditions: MDS Pharma lead profiling panel, radioligand binding, at 10 µM, stronger effect = higher value
[12] = target: Neuropeptide Y receptor type 1 (Homo sapiens) (UniProt P25929); assay: PubChem AID 1788; conditions: MDS Pharma lead profiling panel, radioligand binding; Neuropeptide Y Y1 (human); at 10 µM; stronger effect = higher value
Neuropeptide Y receptor type 1 (Homo sapiens), sequence (P25929 whole entry, looked up): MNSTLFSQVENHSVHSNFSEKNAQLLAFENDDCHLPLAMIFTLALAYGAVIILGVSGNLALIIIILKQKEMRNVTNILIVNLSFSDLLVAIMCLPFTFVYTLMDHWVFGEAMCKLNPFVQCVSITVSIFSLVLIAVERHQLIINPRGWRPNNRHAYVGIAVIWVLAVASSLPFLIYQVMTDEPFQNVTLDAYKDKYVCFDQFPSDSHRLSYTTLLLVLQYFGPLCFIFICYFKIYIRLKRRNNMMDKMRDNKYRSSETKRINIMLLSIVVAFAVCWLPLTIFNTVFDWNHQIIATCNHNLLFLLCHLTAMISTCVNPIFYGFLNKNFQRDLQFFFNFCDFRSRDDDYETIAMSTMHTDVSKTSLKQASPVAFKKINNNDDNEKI

[13] = target: Potassium Channel K ATP (hamster) (UniProt P49658); assay: PubChem AID 1788; conditions: MDS Pharma lead profiling panel, radioligand binding, at 10 µM, stronger effect = higher value
Potassium Channel K ATP (hamster), sequence (P49658 whole entry, looked up): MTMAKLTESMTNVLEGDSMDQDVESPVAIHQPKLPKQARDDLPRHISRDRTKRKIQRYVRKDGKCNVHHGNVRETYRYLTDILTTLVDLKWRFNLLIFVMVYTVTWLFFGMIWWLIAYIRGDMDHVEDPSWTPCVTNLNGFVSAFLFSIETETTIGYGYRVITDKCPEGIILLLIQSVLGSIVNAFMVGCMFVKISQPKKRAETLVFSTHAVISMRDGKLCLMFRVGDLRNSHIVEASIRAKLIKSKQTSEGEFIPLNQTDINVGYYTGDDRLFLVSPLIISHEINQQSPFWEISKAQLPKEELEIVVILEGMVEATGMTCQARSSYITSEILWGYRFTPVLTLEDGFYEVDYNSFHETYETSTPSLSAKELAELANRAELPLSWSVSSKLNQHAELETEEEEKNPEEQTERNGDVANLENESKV

Endothelin ETA (human) = assay: PubChem AID 1788; conditions: MDS Pharma lead profiling panel, radioligand binding, at 10 µM, stronger effect = higher value
[14] = tested on: Vesicular inhibitory amino acid transporter (Rattus norvegicus) + Pro-epidermal growth factor (Homo sapiens) + Acetylcholine receptor subunit alpha (Homo sapiens) + Estrogen receptor (Homo sapiens) + Glucocorticoid receptor (Homo sapiens) + Sodium channel protein type 1 subunit alpha (Rattus norvegicus) + Beta-2 adrenergic receptor (Homo sapiens) + Muscarinic acetylcholine receptor M2 (Homo sapiens) + Beta-1 adrenergic receptor (Homo sapiens) + 5-hydroxytryptamine receptor 1A (Homo sapiens) + Alpha-2A adrenergic receptor (Homo sapiens) + Muscarinic acetylcholine receptor M1 (Homo sapiens) + Interleukin-1 receptor type 1 (Mus musculus) + D(2) dopamine receptor (Homo sapiens) + Androgen receptor (Rattus norvegicus) + Gamma-aminobutyric acid receptor subunit gamma-2 (Rattus norvegicus) + Muscarinic acetylcholine receptor M3 (Homo sapiens) + D(1A) dopamine receptor (Homo sapiens) + D(4) dopamine receptor (Homo sapiens) + Glutamate receptor ionotropic, kainate 1 (Rattus norvegicus) + Sodium-dependent noradrenaline transporter (Homo sapiens) + Endothelin receptor type B (Homo sapiens) + Alpha-1D adrenergic receptor (Homo sapiens) + Endothelin-1 receptor (Homo sapiens) + Substance-P receptor (Homo sapiens) + Neuropeptide Y receptor type 1 (Homo sapiens) + Adenosine receptor A2a (Homo sapiens) + B2 bradykinin receptor (Homo sapiens) + Adenosine receptor A1 (Homo sapiens) + Sodium-dependent serotonin transporter (Homo sapiens) + Neuronal acetylcholine receptor subunit alpha-3 (Homo …; assay: PubChem AID 1788; conditions: MDS Pharma lead profiling panel, radioligand binding; at 10 µM; stronger effect = higher value
[15] = target: Neuropeptide Y receptor type 2 (Homo sapiens) (UniProt P49146); assay: PubChem AID 1788; conditions: MDS Pharma lead profiling panel, radioligand binding; Neuropeptide Y Y2 (human); at 10 µM; stronger effect = higher value
Neuropeptide Y receptor type 2 (Homo sapiens), sequence (P49146 whole entry, looked up): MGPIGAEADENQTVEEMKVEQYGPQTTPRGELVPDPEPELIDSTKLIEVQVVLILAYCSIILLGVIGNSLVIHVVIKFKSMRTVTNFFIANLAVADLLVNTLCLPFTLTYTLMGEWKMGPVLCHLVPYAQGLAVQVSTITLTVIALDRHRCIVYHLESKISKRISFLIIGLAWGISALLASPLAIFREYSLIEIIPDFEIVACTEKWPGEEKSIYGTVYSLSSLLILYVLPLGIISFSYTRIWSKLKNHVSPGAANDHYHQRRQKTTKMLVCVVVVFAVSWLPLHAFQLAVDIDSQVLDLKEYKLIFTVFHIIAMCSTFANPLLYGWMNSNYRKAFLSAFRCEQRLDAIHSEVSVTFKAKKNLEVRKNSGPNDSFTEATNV

PubChem AID 1788 = conditions: MDS Pharma lead profiling panel, radioligand binding; GABAA central (rat), Muscimol site; at 10 µM; stronger effect = higher value

Measured: inhibition

Muscarinic acetylcholine receptor M2 (Homo sapiens), sequence (P08172 whole entry, looked up): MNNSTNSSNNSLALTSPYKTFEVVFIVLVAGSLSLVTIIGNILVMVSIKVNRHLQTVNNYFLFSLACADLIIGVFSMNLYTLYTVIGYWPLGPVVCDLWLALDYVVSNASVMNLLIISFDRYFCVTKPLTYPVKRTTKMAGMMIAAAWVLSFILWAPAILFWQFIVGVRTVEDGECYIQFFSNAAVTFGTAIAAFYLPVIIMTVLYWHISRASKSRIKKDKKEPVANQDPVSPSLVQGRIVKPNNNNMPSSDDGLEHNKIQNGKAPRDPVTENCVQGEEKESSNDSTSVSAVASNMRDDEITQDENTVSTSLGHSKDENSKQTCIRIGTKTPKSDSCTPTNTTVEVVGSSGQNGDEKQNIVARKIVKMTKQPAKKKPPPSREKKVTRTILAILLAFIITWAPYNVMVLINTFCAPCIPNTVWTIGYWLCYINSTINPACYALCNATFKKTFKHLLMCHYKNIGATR

CCOC(=O)N1CCC(NCCNC(=O)c2ccccc2C)CC1
inactive: [1] 1% | [2] 1% | [3] 19% | [4] -1% | Thyroid Hormone (rat) -8% | [5] 25% | [6] 22% | [7] 1% | Tachykinin NK1 (human) -8% | [8] 5% | Sigma s2 (rat) 44% | Endothelin ETB (human) -4% | Interleukin IL-1 (mouse) -1% | [9] 29% | [10] -7% | [11] -2% | Bradykinin B1 (human) 8% | Glutamate NMDA (rat); Glycine site -11% | Glutamate NMDA (rat); Phencyclidine site 7% | Glutamate NMDA (rat); agonism site 13% | [12] 0% | [13] -9% | Endothelin ETA (human) 8% | [14] -8% | [15] 12% | PubChem AID 1788 7%
